Converted amounts (≈) assume the structure as drawn. Like-named read-outs stand apart in the source and are kept apart here. Blank lines part the entries; values can stand above or below the molecule they belong to.
Key:
[1] = tested on: E. coli ATCC 25,922; test: Antibacterial screening, agar cup diffusion method; assay type: cell-based; conditions: Escherichia coli, ATCC25, Gram –ve strain; read-out: Minimum inhibitory concentrations (MIC, µM) E. coli ATCC 25,922
Procedure: (§7) Anti-bacterial activity of the recently synthesized compounds 3a-k was evaluated at AUMC (Assiut University Mycological Centre), Assiut, Egypt. Assays were done against Gram-negative strains of K. pneumoniae (ATCC 100310, E. coli (ATCC 25922), Pseudomonas aeruginosa (ATCC 27853) and the Gram-positive S. aureus (ATCC 6538) strain utilizing standard agar cup diffusion method. The isolates from the four bacterial species examined were kept in TSB (Trypticase Soya Broth, Becton and Dickinson) with 10% glycerol at -70 °C and then subcultured on TSA (Trypticase Soya Agar, Becton and Dickinson) and TSB for 24 h at 37 °C former to inoculation. Bacterial isolates were then plated on sterile petri plates with 1 × 10^8 CFU/mL (0.5 McFarland turbidity) and 20 mL of Mueller Hinton Agar media (Oxoid) was then loaded. To ensure that the microorganisms were evenly dispersed, the plates were gently rotated before being left to harden on a level surface. Four equally spaced spherical-shaped wells (10 mm diameter) were painstakingly drilled using a sterilized cork bore after media solidification. All tested compounds under test underwent two-fold serial dilutions in a sequential manner. Three replications of 100 µL of each concentration were added to a well using a micropipette. Plates were then incubated for 24-hour at 37 °C. The average of the inhibition zones was then calculated. To determine the MICs, the natural logarithm of each diluted test substance’s concentration was plotted against the average area of the related inhibition zone. Following that, a regression line was created and the intercept on the ‘ln concentration” axis was determined, and the antilogarithm was calculated to indicate the MIC value[34],[63].

[2] = tested on: Jurkat cells; conditions: cited from earlier work
[3] = tested on: P. aeruginosa ATCC 27,853; test: Antibacterial screening, agar cup diffusion method; assay type: cell-based; conditions: Pseudomonas aeruginosa, ATCC27; Gram –ve strain; read-out: Minimum inhibitory concentrations (MIC, µM) P. aeruginosa ATCC 27,853
[4] = tested on: S. aureus ATCC 6538; test: Antibacterial screening, agar cup diffusion method; assay type: cell-based; conditions: Staphylococcus aureus, ATCC6538; Gram + ve strain; read-out: Minimum inhibitory concentrations (MIC, µM) S. aureus ATCC 6538
[5] = tested on: K. pneumoniae ATCC 10,031; test: Antibacterial screening, agar cup diffusion method; assay type: cell-based; conditions: read-out: Minimum inhibitory concentrations (MIC, µM) K. pneumoniae ATCC 10,031
Procedure: as §7

[6] = tested on: human melanoma LOX IMVI; conditions: read-out: In vitro cytotoxicity (IC50) LOX IMVI (µM ± SEM), MTT assay
[7] = tested on: A498 renal cancer cell line; conditions: read-out: In vitro cytotoxicity (IC50) A498 cell line (µM ± SEM), A498, MTT assay
[8] = target: T1, topoisomerase IIβ (Homo sapiens, UniProt Q02880); test: Topoisomerase II inhibition, human DNA topoisomerase Elisa kit; assay type: biochemical
T1 construct: purchased
T1 sequence (Q02880 whole entry): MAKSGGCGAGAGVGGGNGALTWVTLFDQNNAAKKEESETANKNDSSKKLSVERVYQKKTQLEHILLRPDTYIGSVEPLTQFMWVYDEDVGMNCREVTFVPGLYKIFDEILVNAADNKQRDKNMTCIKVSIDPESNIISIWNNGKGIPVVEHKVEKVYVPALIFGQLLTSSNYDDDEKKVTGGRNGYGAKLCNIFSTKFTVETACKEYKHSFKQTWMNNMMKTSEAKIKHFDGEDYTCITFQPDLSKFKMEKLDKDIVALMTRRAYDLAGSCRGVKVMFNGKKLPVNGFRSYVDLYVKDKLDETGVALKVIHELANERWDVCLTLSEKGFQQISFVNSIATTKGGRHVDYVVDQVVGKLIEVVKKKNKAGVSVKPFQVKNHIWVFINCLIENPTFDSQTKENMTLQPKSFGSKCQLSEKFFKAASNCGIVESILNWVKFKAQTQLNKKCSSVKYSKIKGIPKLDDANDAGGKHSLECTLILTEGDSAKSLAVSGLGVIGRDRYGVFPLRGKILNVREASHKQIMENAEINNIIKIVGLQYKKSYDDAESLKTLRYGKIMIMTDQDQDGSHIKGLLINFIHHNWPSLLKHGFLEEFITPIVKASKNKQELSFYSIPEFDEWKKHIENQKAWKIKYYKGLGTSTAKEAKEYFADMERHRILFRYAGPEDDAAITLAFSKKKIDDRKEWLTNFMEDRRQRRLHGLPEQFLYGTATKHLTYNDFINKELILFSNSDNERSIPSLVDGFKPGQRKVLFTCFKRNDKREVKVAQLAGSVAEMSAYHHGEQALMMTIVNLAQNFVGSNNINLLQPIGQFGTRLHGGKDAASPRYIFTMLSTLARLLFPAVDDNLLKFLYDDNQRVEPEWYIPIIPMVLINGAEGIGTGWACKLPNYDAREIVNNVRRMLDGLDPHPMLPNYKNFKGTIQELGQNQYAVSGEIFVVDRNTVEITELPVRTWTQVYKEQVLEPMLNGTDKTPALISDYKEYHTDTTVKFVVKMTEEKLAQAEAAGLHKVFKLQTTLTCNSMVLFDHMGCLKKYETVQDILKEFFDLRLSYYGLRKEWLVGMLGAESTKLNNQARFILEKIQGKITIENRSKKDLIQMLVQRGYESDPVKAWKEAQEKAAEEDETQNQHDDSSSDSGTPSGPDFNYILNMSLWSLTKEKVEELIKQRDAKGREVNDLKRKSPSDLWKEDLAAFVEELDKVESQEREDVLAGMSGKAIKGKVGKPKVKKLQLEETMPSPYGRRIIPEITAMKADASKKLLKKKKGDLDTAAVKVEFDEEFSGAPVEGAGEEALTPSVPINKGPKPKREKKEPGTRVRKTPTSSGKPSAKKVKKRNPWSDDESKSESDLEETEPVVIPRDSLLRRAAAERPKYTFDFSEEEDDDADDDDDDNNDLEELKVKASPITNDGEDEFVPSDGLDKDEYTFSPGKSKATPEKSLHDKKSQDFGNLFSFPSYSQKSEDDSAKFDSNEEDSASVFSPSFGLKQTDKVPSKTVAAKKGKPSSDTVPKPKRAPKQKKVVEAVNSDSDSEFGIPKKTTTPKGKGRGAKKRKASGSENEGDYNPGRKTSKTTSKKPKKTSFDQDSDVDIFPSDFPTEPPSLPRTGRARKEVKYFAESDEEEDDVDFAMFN
Procedure: (§1) Two folds of serial dilution was accomplished after standards and the tested compounds were dissolved in sample diluent. Horseradish peroxidase (HRP-avidin) and biotin-conjugated antibody were diluted 10 times each. Each well received 100 µL of each concentration of the standard or test chemicals, which were then added and incubated at 37 °C for 60 min. […] The microtiter plate was rinsed three times and given room to aspirate. After that, the plate was incubated at 37 °C for 60 min with 100 µL of HRP-avidin solution added to each well. After that, the plate was aspirated and cleaned 5 times. Each well received 90 µL of TMB substrate, and the plate was incubated for 30 min. at 37 °C in a light-protected environment. Finally, stop solution (50 µL) was loaded, and within 5 min, the absorbance at 450 nm was measured spectrophotometrically.
(§2) Topoisomerase enzyme assay
(§3) Topoisomerase I and II inhibitory activity […]
(§4) topoisomerase IIβ inhibitory activity utilizing the human DNA topoisomerase Elisa kit.
(§5) Standards and the tested compound were dissolved in sample diluent and 2 folds serial dilution was achieved. Biotin-conjugated antibody and avidin conjugated Horseradish Peroxidase (HRP-avidin) were diluted to 10 folds. 100 μL of each concentration of standard or test compound were added to each well. Incubate at 37 °C for 1 h. The liquid in each well was removed. 10 0 μL of Biotin-conjugated antibody solution was added to each well followed by incubation for 1 h at 37 °C. The microtiter plate was allowed to aspirate and washed 3 times. 100 μL of avidin conjugated Horseradish Peroxidase (HRP -avidin) solution was added to each well and the plate was incubated for 1 h at 37 °C. The plate was aspirated and washed 5 times. 90 μL of TMB substrate were added to each well and the plate was incubated for 30 min at 37 °C and protected from light. 50 μL stop so lution was added. The absorbance was measured spectrophotometrically within 5 min at 450 nm .

[9] = target: T2, topoisomerase Iα (Homo sapiens, UniProt P11387); test: Topoisomerase I inhibition, human DNA topoisomerase Elisa kit; assay type: biochemical; conditions: ± SEM
T2 construct: purchased
T2 sequence (P11387 1-765): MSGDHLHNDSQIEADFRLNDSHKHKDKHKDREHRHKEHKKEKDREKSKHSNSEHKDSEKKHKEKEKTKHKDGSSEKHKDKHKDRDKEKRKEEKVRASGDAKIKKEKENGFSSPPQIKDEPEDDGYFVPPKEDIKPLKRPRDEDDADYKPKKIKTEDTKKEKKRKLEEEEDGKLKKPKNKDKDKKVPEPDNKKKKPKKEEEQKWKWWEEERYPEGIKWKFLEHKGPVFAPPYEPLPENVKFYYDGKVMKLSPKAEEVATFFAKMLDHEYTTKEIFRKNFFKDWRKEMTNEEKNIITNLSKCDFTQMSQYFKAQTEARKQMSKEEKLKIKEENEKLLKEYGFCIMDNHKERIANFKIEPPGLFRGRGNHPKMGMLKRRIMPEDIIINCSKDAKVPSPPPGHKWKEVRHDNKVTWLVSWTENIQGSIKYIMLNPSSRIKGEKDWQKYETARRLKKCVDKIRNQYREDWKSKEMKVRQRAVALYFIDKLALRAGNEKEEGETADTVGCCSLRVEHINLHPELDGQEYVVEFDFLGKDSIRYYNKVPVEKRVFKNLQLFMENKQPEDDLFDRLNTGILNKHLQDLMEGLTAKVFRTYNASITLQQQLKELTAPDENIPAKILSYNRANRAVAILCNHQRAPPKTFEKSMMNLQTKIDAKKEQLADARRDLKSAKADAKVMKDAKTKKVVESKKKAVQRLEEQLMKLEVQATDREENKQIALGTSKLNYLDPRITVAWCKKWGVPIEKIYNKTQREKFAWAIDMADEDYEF
Procedure: as §1, §2, §3, §4, §5

[10] = tested on: melanoma LOX IMVI cell line; test: Annexin V-FITC/PI apoptosis and necrosis assay; assay type: cell-based, human; conditions: LOX IMVI treated with IC50 concentration
Procedure: Following the manufacturer’s instructions, the Annexin V-FITC Apoptosis Detection Kit (Bio Vision Research Products, USA) was used to analyze cell apoptosis. Briefly, 500 µL of 1X Binding buffer was used to resuspend 1-5 × 10^5 cells that had been harvested by centrifugation. Propidium iodide (PI, 50 mg/ml) and Annexin V-FITC, each administered in 5 µL, were also added. The cells were first incubated for 5 minutes at room temperature in the dark before being analyzed using the Annexin V-FITC binding flow cytometric technique (Ex = 488 nm; Em = 530 nm) with a FITC signal detector (typically FL1) and PI staining with a phycoerythrin emission signal detector (typically FL2). Before exposing adherent cells to Annexin V-FITC, we gently trypsinized and gave them a single wash in serum-containing medium (A.3–5). Cell synchronisation is done using Double-thymidine synchronization method and the used Media is double modifed eagle media (DMEM).
Cell cycle analysis and detection of apoptosis
Annexin V-FITC apoptosis assay
Cell apoptosis were analyzed by the Annexin V-FITC Apoptosis Detection Kit (Bio Vision Research Products, USA). Thereafter, 1-5 x 10^5 cells were collected by centrifugation and resuspend in 500 μl of 1X Binding Buffer. Added 5 μl of Annexin V-FITC and 5 μl of propidium iodide (PI 50mg/ml, optional.). The cells incubated at room temperature for 5 min in the dark; Analyzed by Annexin V-FITC binding flow cytometric method (Ex = 488 nm; Em = 530 nm) using FITC signal detector (usually FL1) and PI staining by the phycoerythrin emission signal detector (usually FL2). For adherent cells, we gently trypsinized and washed cells once with serum-containing media before incubation with Annexin V-FITC (A.3-5). […]

[11] = tested on: normal cell line WI 38; test: MTT cytotoxicity assay on normal cells; assay type: cell-based; conditions: Homo sapiens; normal cell line WI 38, MTT assay, ± SEM; read-out: IC50 W138 normal cell line (µM ± SEM)
Procedure: After 24 h of culture incubation and supernatants discarded. […] Each test should include a blank containing complete medium without cells. […] Add reconstituted MTT in an amount equal to 10% of the culture medium volume. […] Spectrophotometrically absorbance was measured at a wavelength of 570 nm. […] Results from all experiments were recorded and the percentage of viable cells was calculated.

[12] = tested on: active caspase-3; test: Western blot of protein expression in LOX IMVI cells; assay type: cell-based, human; conditions: control = 1
Procedure: (§6) To evaluate the expression level of the apoptosis modulatory markers Bax, caspase 3 and PARP-1, western blot was performed as formerly described. Three different groups of LOX IMVI cells were permitted to grow to reach 70–80% confluence in […] flasks. The first group of LOX IMVI cells was treated with compound 3i. […] The media was taken out after 48 h, and cells underwent three rounds of ice-cold PBS washing. RIPA lysis buffer [consisting of Tris-HCl pH 7.6 (25 mM), NaCl (150 mM), EDTA (5 mM), NP-40 or Triton X-100 (1%), sodium deoxycholate (1%), SDS1 (1%)] with the proper phosphatase and a protease inhibitor was used to create the whole-cell lysate for 30 min. After centrifuging the mixture at 12,000 rpm for 20 min and sonicating it for five minutes, the supernatant was collected, split into aliquots, and kept at -80 °C. The Biuret method was used to determine protein content[27],[28]. Proteins in each matched cell lysate were denatured in 2 Laemmli buffer containing 5% β--mercaptoethanol at 95 °C for 5 min. For SDS-PAGE electrophoresis, 20 µg of protein per lane were loaded at 100 volts through a 6% stacking gel, then at 125 volts through a 10% resolving gel for around 2 h, and then transferred to a PVDF membrane using a semidry transfer apparatus (made by Cleaver Scientific) for 25 min. The PVDF membrane was first incubated for one hour at 4 °C in TBS buffer containing 0.1% Tween (TBST) and 5% fat-free milk, then overnight at 4 °C with monoclonal anti-Bax, anti-PARP-1, and anti-caspase-3 as primary antibodies (Cell Signalling Technology) at a dilution of 1:500. Membranes were first treated overnight, then three times washed in TBST buffer, then incubated at room temperature for 60 min with the corresponding HRP (horse radish peroxidase)-linked secondary antibodies (Dako). Then the substrate for the chemiluminescent Western ECL (Perkin Elmer, Waltham, MA) was added to the blot as described by the manufacturer by incubating the membranes with equal volumes of ECL solution A and ECL solution B for 1 min.

[13] = tested on: Bax; test: as above; assay type: cell-based, human; conditions: control = 1
Procedure: as §6

[14] = tested on: PARP-1; test: as above; assay type: cell-based, human; conditions: control = 1
Procedure: as §6

[15] = tested on: melanoma LOX IMVI cell line; test: Cell cycle analysis, propidium iodide flow cytometry; assay type: cell-based, human; conditions: LOX IMVI treated at IC50 concentration
Procedure: The effect of compound 3i on cell cycle progression of LOX IMVI cell line was evaluated using Propidium Iodide Flow Cytometry Kit to measure the DNA content according to the reported protocols. The LOX IMVI cells used in this work were obtained from the American Type Culture Collection. Cells were cultured in DMEM (Invitrogen/Life Technologies) supplemented with 10% FBS (Hyclone), 10 µg/ml insulin (Sigma), and 1% penicillin-streptomycin. The remaining chemicals and reagents were all from Sigma or Invitrogen. Growth media was removed, cells washed with warm PBS and aspirated. Adhered cells were detached from media by addition of 5 ml 10% trypsin/EDTA and incubated 2 min in the incubator. The suspended cells harvested, aspirated to a falcon tube, centrifuged at 2000 rpm for 5 min. Cell count performed after suspending the cells into a fresh media and stained with trypan blue, counted and used for preparation of the appropriate number of cells.

[16] = tested on: human melanoma LOX IMVI; test: cells
[17] = tested on: A498 renal cancer cell line; test: cells; conditions: Homo sapiens
[18] = tested on: MDA-MB-231 breast adenocarcinoma; parameters: method as in PMID 24287557; conditions: cited from earlier work
[19] = tested on: MCF-7 breast adenocarcinoma cell line; parameters: method as in PMID 24287557; conditions: cited from earlier work
[20] = tested on: MDA-MB-231 triple negative breast cancer cell line; parameters: method as in earlier work; conditions: cited from earlier work
[21] = tested on: A549 lung cancer cell line; parameters: method as in PMID 27614408; conditions: cited from earlier work

- MIC [1]: 0.04 µM (≈ 0.0133 µg/mL)
- MIC [3]: 0.06 µM (≈ 0.0199 µg/mL)
- MIC [4]: 5.49 µM
- MIC ([5]; Gram –ve strain): 0.10 µM (≈ 0.0331 µg/mL)
- MIC ([5]; Klebsiella pneumoniae, ATCC10, Gram –ve strain): 0.1 µM (≈ 0.0331 µg/mL)
SMILES: O=C(O)c1cn(C2CC2)c2cc(N3CCNCC3)c(F)cc2c1=O [Ciprofloxacin, reference compound]
- effect on proliferation of Jurkat cells ([2]; concentration of 25 µg/mL): inhibit the proliferation
- apoptosis in Jurkat cells ([2]; doses higher than 80 µg/mL): induced apoptosis

SMILES: N.N.[Cl][Pt][Cl] [Cisplatin, reference compound]
- IC50 [6]: 5.07 ± 0.29 µM
- IC50 [7]: 7.92 ± 0.45 µM
- IC50 ([8]; ± SEM, read-out: Topoisomerase II IC50 µM ± SEM): 11.3 ± 0.62 µM
- IC50 [9]: 5.71 ± 0.31 µM

SMILES: COc1cccc2c1C(=O)c1c(O)c3c(c(O)c1C2=O)C[C@@](O)(C(=O)CO)C[C@@H]3O[C@H]1C[C@H](N)[C@H](O)[C@H](C)O1 [Doxorubicin, reference compound]
- Apoptosis Early [10]: 1.94%
- Apoptosis Late [10]: 28.53%
- Apoptosis Total [10]: 46.29%
- Necrosis [10]: 15.82%
- IC50 [11]: 18.1 ± 0.98 µM
- Caspace-3 Optical density (OD) [12]: 5.67
- Bax OD [13]: 6.56
- PARP-1 OD [14]: 0.38
- %G0-G1 DNA content [15]: 37.85%
- %G2/M DNA content [15]: 5.94%
- %Pre-G1 DNA content [15]: 46.29%
- %S DNA content [15]: 56.21%
- viability at 0.4 µM [16]: 70.4%
- viability at 1.6 µM [16]: 58.2%
- viability at 25 µM [16]: 42.6%
- viability at 100 µM [16]: 30.4%
- IC50 ([16]; read-out: In vitro cytotoxicity (IC50) LOX IMVI (µM ± SEM)): 7.03 ± 0.4 µM
- IC50 [8]: 6.49 ± 0.35 µM
- viability at 0.4 µM ([17]; A498): 64.5%
- viability at 1.6 µM ([17]; A498): 55.3%
- viability at 25 µM ([17]; A498): 37.6%
- viability at 100 µM ([17]; A498): 26.6%
- IC50 ([17]; A498, read-out: In vitro cytotoxicity (IC50) A498 cell line (µM ± SEM)): 3.59 ± 0.2 µM

SMILES: Cc1ccc(C(=O)CN2C(=O)S/C(=C\C3=C(Cl)c4cc(C)c(C)cc4CCC3)C2=O)cc1 [IV]
- IC50 [18]: 13.39 ± 0.04 µM
- IC50 [19]: 1.91 ± 0.03 µM

SMILES: O=C(CN1C(=O)S/C(=C\c2cc(-c3ccc(Cl)cc3)c3[nH]c4ccccc4c3c2)C1=O)N1CCOCC1 [VI]
- IC50 [20]: 0.97 ± 0.13 µM

SMILES: Cn1c(/C=C2\SC(=O)N(CC(=O)Nc3nc(-c4ccccc4)cs3)C2=O)nc2ccccc21 [V]
- IC50 [21]: 11.5 ± 1.46 µM

— paper PMC11480511 (Scientific Reports, 2024)
